Test results as given in publication PMC9127186, “Molecular Basis Underlying Hepatobiliary and Renal Excretion of Phenolic Acids of Salvia miltiorrhiza Roots (Danshen)” (Frontiers in Pharmacology, 2022).

Key:
[1] = molecular target: T1, rat Oct2 (Rattus norvegicus, UniProt Q9R0W2); assay: Cellular transport assay, HEK-293 cells expressing rat Oct2; conditions: Danshen phenolic acid at 100 μM final concentration, 10 min; rat Oct2-transfected vs mock cells
T1 sequence (Q9R0W2 1-555): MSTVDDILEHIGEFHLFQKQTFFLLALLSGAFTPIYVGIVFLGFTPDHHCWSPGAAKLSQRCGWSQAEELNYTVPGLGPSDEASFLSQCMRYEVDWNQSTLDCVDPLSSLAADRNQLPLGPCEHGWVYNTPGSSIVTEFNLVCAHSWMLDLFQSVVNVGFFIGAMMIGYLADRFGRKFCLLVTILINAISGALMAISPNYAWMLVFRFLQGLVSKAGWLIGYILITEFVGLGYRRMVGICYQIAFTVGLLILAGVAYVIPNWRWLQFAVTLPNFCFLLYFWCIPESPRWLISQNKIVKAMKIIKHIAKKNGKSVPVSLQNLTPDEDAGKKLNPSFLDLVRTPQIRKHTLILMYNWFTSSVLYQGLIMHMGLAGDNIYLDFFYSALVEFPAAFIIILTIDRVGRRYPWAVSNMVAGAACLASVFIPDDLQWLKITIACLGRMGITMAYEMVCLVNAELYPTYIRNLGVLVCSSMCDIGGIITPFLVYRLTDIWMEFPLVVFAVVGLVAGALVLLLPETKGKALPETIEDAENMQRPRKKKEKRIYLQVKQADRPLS

[2] = molecular target: T2, human OCT3 (Homo sapiens, UniProt O75751); assay: Cellular transport assay, HEK-293 cells expressing human OCT3; conditions: Danshen phenolic acid at 100 μM final concentration, 10 min; human OCT3-transfected vs mock cells
T2 sequence (O75751 1-556): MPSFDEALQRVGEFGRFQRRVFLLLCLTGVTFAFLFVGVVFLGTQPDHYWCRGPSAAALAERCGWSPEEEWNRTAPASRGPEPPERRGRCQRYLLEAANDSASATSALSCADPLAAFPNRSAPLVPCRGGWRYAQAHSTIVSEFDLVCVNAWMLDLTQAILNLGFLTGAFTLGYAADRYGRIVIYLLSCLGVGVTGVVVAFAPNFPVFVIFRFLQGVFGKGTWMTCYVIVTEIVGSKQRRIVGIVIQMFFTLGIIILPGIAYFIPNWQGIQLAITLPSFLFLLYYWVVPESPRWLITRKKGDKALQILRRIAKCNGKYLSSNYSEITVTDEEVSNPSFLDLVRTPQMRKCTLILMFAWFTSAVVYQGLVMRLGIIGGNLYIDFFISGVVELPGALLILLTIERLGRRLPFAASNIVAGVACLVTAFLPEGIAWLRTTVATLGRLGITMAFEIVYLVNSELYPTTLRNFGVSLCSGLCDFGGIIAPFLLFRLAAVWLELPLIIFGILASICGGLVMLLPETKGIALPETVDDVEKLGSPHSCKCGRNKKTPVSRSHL

[3] = molecular target: T3, human PEPT1 (Homo sapiens, UniProt P46059); assay: Cellular transport assay, HEK-293 cells expressing human PEPT1; conditions: Danshen phenolic acid at 100 μM final concentration, 10 min, incubation pH 6.0; human transporter PEPE1 [sic], transfected vs mock cells
T3 sequence (P46059 1-708): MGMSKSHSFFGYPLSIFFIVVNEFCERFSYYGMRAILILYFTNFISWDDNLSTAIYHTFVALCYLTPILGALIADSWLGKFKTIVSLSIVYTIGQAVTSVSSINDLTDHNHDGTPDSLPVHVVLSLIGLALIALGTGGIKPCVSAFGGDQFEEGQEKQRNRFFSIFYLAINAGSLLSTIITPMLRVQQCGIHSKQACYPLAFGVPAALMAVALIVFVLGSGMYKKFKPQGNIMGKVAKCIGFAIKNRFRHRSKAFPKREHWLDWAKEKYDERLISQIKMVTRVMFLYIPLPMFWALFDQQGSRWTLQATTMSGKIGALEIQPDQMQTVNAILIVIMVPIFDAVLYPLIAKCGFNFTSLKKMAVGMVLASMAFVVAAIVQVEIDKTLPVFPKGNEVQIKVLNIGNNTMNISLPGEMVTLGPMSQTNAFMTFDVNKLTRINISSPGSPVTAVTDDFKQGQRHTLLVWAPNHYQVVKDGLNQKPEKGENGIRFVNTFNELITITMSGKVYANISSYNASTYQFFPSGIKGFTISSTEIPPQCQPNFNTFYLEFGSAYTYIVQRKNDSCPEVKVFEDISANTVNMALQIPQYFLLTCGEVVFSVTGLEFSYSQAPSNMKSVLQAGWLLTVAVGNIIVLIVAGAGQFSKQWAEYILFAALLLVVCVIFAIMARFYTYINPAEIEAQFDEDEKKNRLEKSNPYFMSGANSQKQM

[4] = molecular target: T4, human PEPT2 (Homo sapiens, UniProt Q16348); assay: Cellular transport assay, HEK-293 cells expressing human PEPT2; conditions: Danshen phenolic acid at 100 μM final concentration, 10 min, incubation pH 6.0; human PEPT2-transfected vs mock cells
T4 sequence (Q16348 1-729): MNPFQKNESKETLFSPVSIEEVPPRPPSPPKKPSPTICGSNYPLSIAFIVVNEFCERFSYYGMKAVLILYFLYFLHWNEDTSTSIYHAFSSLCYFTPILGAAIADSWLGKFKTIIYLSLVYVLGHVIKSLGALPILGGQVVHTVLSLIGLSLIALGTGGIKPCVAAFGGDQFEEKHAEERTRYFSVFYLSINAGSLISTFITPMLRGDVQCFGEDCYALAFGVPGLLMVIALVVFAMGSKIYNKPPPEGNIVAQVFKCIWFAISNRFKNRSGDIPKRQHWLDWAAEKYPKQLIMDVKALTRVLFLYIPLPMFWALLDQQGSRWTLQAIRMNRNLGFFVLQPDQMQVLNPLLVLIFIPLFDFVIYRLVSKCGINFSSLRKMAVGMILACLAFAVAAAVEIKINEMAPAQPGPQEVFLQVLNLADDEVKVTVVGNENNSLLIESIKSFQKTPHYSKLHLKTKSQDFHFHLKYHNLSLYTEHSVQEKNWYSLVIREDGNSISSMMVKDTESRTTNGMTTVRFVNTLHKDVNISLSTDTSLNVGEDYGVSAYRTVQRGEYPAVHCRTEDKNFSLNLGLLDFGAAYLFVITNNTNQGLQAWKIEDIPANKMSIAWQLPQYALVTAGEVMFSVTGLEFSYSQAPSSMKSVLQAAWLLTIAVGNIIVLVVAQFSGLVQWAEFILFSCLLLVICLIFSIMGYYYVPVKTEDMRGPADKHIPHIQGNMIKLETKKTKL

| Compound | TransportTC/TransportMC ratio (net transport ratio) [1] | TransportTC/TransportMC ratio (net transport ratio) [2] | TransportTC/TransportMC ratio (net transport ratio) [3] | TransportTC/TransportMC ratio (net transport ratio) [4] |
| --- | --- | --- | --- | --- |
| O=C(/C=C/c1ccc(O)c2c1[C@H](C(=O)O)[C@@H](c1ccc(O)c(O)c1)O2)O[C@H](Cc1ccc(O)c(O)c1)C(=O)O [Lithospermic acid, lithospermic acid] | 1.11 ± 0.32 | 0.84 ± 0.15 | 1.86 ± 0.36 | 0.74 ± 0.06 |
| O=C(O)c1ccc(O)c(O)c1 [Protocatechuic acid, protocatechuic acid] | 0.92 ± 0.08 | 0.94 ± 0.24 | 0.93 ± 0.34 | 1.43 ± 0.32 |
| O=C(/C=C/c1ccc(O)c(O)c1)O[C@H](Cc1ccc(O)c(O)c1)C(=O)O [Rosmarinic acid, rosmarinic acid] | – | 0.75 ± 0.23 | – | – |
| O=C(O)Cc1c(/C=C/C(=O)O[C@H](Cc2ccc(O)c(O)c2)C(=O)O)ccc(O)c1O [Salvianolic acid D, salvianolic acid D] | 1.44 ± 0.24 | 0.94 ± 0.32 | 1.06 ± 0.20 | 1.03 ± 0.11 |
| salvianolic acid B | 1.08 ± 0.21 | 0.75 ± 0.38 | 2.05 ± 0.22 | 1.06 ± 0.12 |
